Laboratory results: patent US20210261512A1, “NOVEL COMPOUNDS” (INFLAZOME LIMITED, priority 2018, published 2021)

System: not listed separately
Test: PK, intravenous administration
Type: in vivo
Conditions: rat, plasma, male Sprague Dawley rats, dose about 1 mg/kg
Protocol: Pharmacokinetic parameters were determined in male Sprague Dawley rats (Vital River Laboratory Animal Technology Co Ltd, Beijing, China, 6-9 weeks old). Animals were maintained under a 12 h light/dark cycle. Animals had free access to food and water, except that orally dosed animals were food deprived overnight prior to the study.
For intravenous administration, compounds were formulated as a solution (in DMSO:water [10:90] or in DMSO:PBS [10:90]) in 2 mL/kg dosing volume and administered via tail vein. For oral administration, compounds were formulated as a solution (in 0.5% methylcellulose in water) in […] dosing volume and administered orally.
Serial blood samples (about 200 μL) were taken from each animal at each of 8 time-points post dose ([…], 0.25, 0.5, 1, 2, 4, 8 and 24 h). Samples were held on ice for no longer than 30 minutes before centrifugation (5,696 rpm (3,000 g) for 15 minutes) for plasma generation. Plasma was frozen on dry ice prior to bioanalysis. PK parameters were generated from LC-MS/MS data using Phoenix WinNonlin 6.3 software.

Row | Compound | AUC [ng·h/mL] | clearance [mL/min/kg] | half-life [min]
1 | O=S(=O)(c1ccccc1)c1nnc(Nc2c3c(cc4c2CCC4)CCC3)[nH]1 [Example 40, N-(1,2,3,5,6,7-hexahydro-s-indacen-4-yl)-5-(phenylsulfonyl)-1H-1,2,4-triazol-3-amine] | 1460 | 11.4 | 54
2 | Cn1cc(S(=O)(=O)c2nnc(Nc3c4c(cc5c3CCC5)CCC4)[nH]2)cn1 [Example 159, N-(1,2,3,5,6,7-hexahydro-s-indacen-4-yl)-5-((1-methyl-1H-pyrazol-4-yl)sulfonyl)-4H-1,2,4-triazol-3-amine] | 2250 | 6.9 | 55.8

Same assay, conditions: rat, plasma, male Sprague Dawley rats, dose about 1 mg/kg, read-out: Vdss

Row | Compound | Vd [L/kg]
3 | O=S(=O)(c1ccccc1)c1nnc(Nc2c3c(cc4c2CCC4)CCC3)[nH]1 [Example 40, N-(1,2,3,5,6,7-hexahydro-s-indacen-4-yl)-5-(phenylsulfonyl)-1H-1,2,4-triazol-3-amine] | 0.54
4 | Cn1cc(S(=O)(=O)c2nnc(Nc3c4c(cc5c3CCC5)CCC4)[nH]2)cn1 [Example 159, N-(1,2,3,5,6,7-hexahydro-s-indacen-4-yl)-5-((1-methyl-1H-pyrazol-4-yl)sulfonyl)-4H-1,2,4-triazol-3-amine] | 0.38

Molecular target: NLRP3 (Homo sapiens, UniProt Q96P20)
Test: THP-1 cells pyroptosis assay
Type: cell-based
Set-up: Seed THP-1 cells (25,000 cells/well) containing 1.0 μg/ml LPS; host or cells: THP-1
Conditions: LPS 1.0 μg/ml, nigericin 5 μM, resazurin readout, 10 μM top dose (Example 2: top dose of 30 μM)
In short: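 THP-1 cells (25,000/well) primed with 1 μg/ml LPS in serum-free RPMI, treated with compound (8-point dilution, 10 μM top unless stated; 0.1% DMSO) 3 h at 37°C, then nigericin 5 μM 1 h. Viability read by resazurin (100 μM, 1-2 h) fluorescence; IC50 from 4-parameter fit.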

Sequence of NLRP3 (Q96P20 whole entry): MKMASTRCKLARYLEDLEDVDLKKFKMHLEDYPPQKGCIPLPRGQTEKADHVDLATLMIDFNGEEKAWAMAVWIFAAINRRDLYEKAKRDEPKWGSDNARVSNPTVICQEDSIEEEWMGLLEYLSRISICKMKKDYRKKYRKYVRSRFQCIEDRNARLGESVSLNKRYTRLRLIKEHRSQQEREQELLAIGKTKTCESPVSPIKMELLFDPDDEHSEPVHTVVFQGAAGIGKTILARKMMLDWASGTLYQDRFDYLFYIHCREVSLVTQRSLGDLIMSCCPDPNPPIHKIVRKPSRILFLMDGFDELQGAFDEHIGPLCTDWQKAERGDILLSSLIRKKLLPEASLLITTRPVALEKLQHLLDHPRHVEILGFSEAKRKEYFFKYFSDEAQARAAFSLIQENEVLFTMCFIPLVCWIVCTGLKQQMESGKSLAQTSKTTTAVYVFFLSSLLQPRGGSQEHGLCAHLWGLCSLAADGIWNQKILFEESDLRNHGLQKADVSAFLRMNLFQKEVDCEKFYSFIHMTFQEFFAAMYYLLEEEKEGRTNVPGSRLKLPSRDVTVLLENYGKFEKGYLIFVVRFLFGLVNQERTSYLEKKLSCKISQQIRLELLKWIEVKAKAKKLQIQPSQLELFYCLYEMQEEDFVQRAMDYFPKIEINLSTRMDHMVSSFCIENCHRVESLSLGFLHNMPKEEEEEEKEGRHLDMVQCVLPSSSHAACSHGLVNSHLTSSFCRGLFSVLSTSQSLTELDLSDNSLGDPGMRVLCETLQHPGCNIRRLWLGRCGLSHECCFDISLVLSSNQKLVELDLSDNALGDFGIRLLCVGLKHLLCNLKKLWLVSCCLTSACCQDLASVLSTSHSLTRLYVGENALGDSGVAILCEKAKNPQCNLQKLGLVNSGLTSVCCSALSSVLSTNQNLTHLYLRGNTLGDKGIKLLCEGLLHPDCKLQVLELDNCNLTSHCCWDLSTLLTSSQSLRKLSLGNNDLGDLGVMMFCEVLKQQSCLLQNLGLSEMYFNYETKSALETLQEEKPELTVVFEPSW

Row | Compound | IC50 [µM]
5 | O=S(=O)(c1ccccc1)c1nnc(Nc2c3c(cc4c2CCC4)CCC3)[nH]1 [Example 40, N-(1,2,3,5,6,7-hexahydro-s-indacen-4-yl)-5-(phenylsulfonyl)-1H-1,2,4-triazol-3-amine] | ≤ 1
6 | Cn1cc(S(=O)(=O)c2nnc(Nc3c4c(cc5c3CCC5)CCC4)[nH]2)cn1 [Example 159, N-(1,2,3,5,6,7-hexahydro-s-indacen-4-yl)-5-((1-methyl-1H-pyrazol-4-yl)sulfonyl)-4H-1,2,4-triazol-3-amine] | ≤ 5
7 | CC(C)n1cc(S(=O)(=O)c2nnc(Nc3c4c(cc5c3CCC5)CCC4)[nH]2)cn1 [Example 338, N-(1,2,3,5,6,7-hexahydro-s-indacen-4-yl)-5-((1-isopropyl-1H-pyrazol-4-yl)sulfonyl)-4H-1,2,4-triazol-3-amine] | ≤ 5
8 | CS(=O)(=O)c1nnc(Nc2c(-c3ccnc(Oc4ccccc4)c3)ccc3c2CCC3)[nH]1 [Example 340, 5-(methylsulfonyl)-N-(5-(2-phenoxypyridin-4-yl)-2,3-dihydro-1H-inden-4-yl)-4H-1,2,4-triazol-3-amine] | ≤ 5
9 | CS(=O)(=O)c1nnc(Nc2c(-c3ccnc(OC4CCOCC4)c3)ccc3c2CCC3)[nH]1 [Example 342, 5-(methylsulfonyl)-N-(5-(2-((tetrahydro-2H-pyran-4-yl)oxy)pyridin-4-yl)-2,3-dihydro-1H-inden-4-yl)-4H-1,2,4-triazol-3-amine] | ≤ 5
10 | CN(C)C(=O)Cn1cc(S(=O)(=O)c2nnc(Nc3c4c(cc5c3CCC5)CCC4)[nH]2)cn1 [Example 348, 2-(4-((5-((1,2,3,5,6,7-hexahydro-s-indacen-4-yl)amino)-4H-1,2,4-triazol-3-yl)sulfonyl)-1H-pyrazol-1-yl)-N,N-dimethylacetamide] | ≤ 5
11 | CN(C)CCn1cc(S(=O)(=O)c2nnc(Nc3c4c(cc5c3CCC5)CCC4)[nH]2)cn1 [Example 350, 5-((1-(2-(dimethylamino)ethyl)-1H-pyrazol-4-yl)sulfonyl)-N-(1,2,3,5,6,7-hexahydro-s-indacen-4-yl)-4H-1,2,4-triazol-3-amine] | ≤ 1
12 | Cn1cc(C#N)c(S(=O)(=O)c2nnc(Nc3c4c(cc5c3CCC5)CCC4)[nH]2)n1 [Example 351, 3-((5-((1,2,3,5,6,7-hexahydro-s-indacen-4-yl)amino)-4H-1,2,4-triazol-3-yl)sulfonyl)-1-methyl-1H-pyrazole-4-carbonitrile] | ≤ 5
13 | CC(O)Cn1cc(S(=O)(=O)c2nnc(Nc3c4c(cc5c3CCC5)CCC4)[nH]2)cn1 (centres unmarked) [Example 353, 1-(4-((5-((1,2,3,5,6,7-hexahydro-s-indacen-4-yl)amino)-4H-1,2,4-triazol-3-yl)sulfonyl)-1H-pyrazol-1-yl)propan-2-ol] | ≤ 5
14 | O=S(=O)(c1ccn(C2CC2)n1)c1nnc(Nc2c3c(cc4c2CCC4)CCC3)[nH]1 [Example 354, 5-((1-cyclopropyl-1H-pyrazol-3-yl)sulfonyl)-N-(1,2,3,5,6,7-hexahydro-s-indacen-4-yl)-4H-1,2,4-triazol-3-amine] | ≤ 0.5
15 | Cn1ncc(S(=O)(=O)c2nnc(Nc3c4c(cc5c3CCC5)CCC4)[nH]2)c1C#N [Example 355, 4-((5-((1,2,3,5,6,7-hexahydro-s-indacen-4-yl)amino)-4H-1,2,4-triazol-3-yl)sulfonyl)-1-methyl-1H-pyrazole-5-carbonitrile] | ≤ 5
16 | CN(C)C1CCC(Oc2cc(-c3ccc4c(c3Nc3nnc(S(C)(=O)=O)[nH]3)CCC4)ccn2)CC1 (centres unmarked) [Example 356, N-(5-(2-((4-(dimethylamino)cyclohexyl)oxy)pyridin-4-yl)-2,3-dihydro-1H-inden-4-yl)-5-(methylsulfonyl)-4H-1,2,4-triazol-3-amine] | ≤ 5
17 | CS(=O)(=O)c1nnc(Nc2c(-c3ccnc(OC4CCNCC4)c3)ccc3c2CCC3)[nH]1 [Example 357, 5-(methylsulfonyl)-N-(5-(2-(piperidin-4-yloxy)pyridin-4-yl)-2,3-dihydro-1H-inden-4-yl)-4H-1,2,4-triazol-3-amine] | ≤ 10
18 | CN1CCC(COc2cc(-c3ccc4c(c3Nc3nnc(S(C)(=O)=O)[nH]3)CCC4)ccn2)C1 (centres unmarked) [Example 358, N-(5-(2-((1-methylpyrrolidin-3-yl)methoxy)pyridin-4-yl)-2,3-dihydro-1H-inden-4-yl)-5-(methylsulfonyl)-4H-1,2,4-triazol-3-amine] | ≤ 10
19 | CN1CCCC(COc2cc(-c3ccc4c(c3Nc3nnc(S(C)(=O)=O)[nH]3)CCC4)ccn2)C1 (centres unmarked) [Example 359, N-(5-(2-((1-methylpiperidin-3-yl)methoxy)pyridin-4-yl)-2,3-dihydro-1H-inden-4-yl)-5-(methylsulfonyl)-4H-1,2,4-triazol-3-amine] | ≤ 5
20 | COc1cc(-c2ccc3c(c2Nc2nnc(S(C)(=O)=O)[nH]2)CCC3)ccn1 [Example 361, N-(5-(2-methoxypyridin-4-yl)-2,3-dihydro-1H-inden-4-yl)-5-(methylsulfonyl)-4H-1,2,4-triazol-3-amine] | ≤ 10
21 | Cc1cc2c(c(Nc3nnc(S(C)(=O)=O)[nH]3)c1-c1ccnc(OCC3CCCN(C)C3)c1)CCC2 (centres unmarked) [Example 362, N-(6-methyl-5-(2-((1-methylpiperidin-3-yl)methoxy)pyridin-4-yl)-2,3-dihydro-1H-inden-4-yl)-5-(methylsulfonyl)-4H-1,2,4-triazol-3-amine] | ≤ 5
22 | COCC(C)Oc1cc(-c2c(C)cc3c(c2Nc2nnc(S(C)(=O)=O)[nH]2)CCC3)ccn1 (centres unmarked) [Example 363, N-(5-(2-((1-methoxypropan-2-yl)oxy)-pyridin-4-yl)-6-methyl-2,3-dihydro-1H-inden-4-yl)-5-(methylsulfonyl)-4H-1,2,4-triazol-3-amine] | ≤ 5
23 | Cc1cc2c(c(Nc3nnc(S(C)(=O)=O)[nH]3)c1-c1ccnc(OC3CCOCC3)c1)CCC2 [Example 364, N-(6-methyl-5-(2-((tetrahydro-2H-pyran-4-yl)oxy)pyridin-4-yl)-2,3-dihydro-1H-inden-4-yl)-5-(methylsulfonyl)-4H-1,2,4-triazol-3-amine] | ≤ 5
24 | Cc1cc2c(c(Nc3nnc(S(C)(=O)=O)[nH]3)c1-c1ccnc(O[C@H]3CC[C@H](N(C)C)CC3)c1)CCC2 [Example 365, N-(5-(2-(((1r,4r)-4-(dimethylamino)cyclohexyl)oxy)pyridin-4-yl)-6-methyl-2,3-dihydro-1H-inden-4-yl)-5-(methylsulfonyl)-4H-1,2,4-triazol-3-amine] | ≤ 5
25 | O=S(=O)(c1cccc(OC(F)(F)F)c1)c1nnc(Nc2c3c(cc4c2CCC4)CCC3)[nH]1 [Example 367, N-(1,2,3,5,6,7-hexahydro-s-indacen-4-yl)-5-((3-(trifluoromethoxy)phenyl)-sulfonyl)-4H-1,2,4-triazol-3-amine] | ≤ 5
26 | Cc1cc2c(c(Nc3nnc(S(C)(=O)=O)[nH]3)c1-c1ccnc(OC3CCNCC3)c1)CCC2 [Example 368, N-(6-methyl-5-(2-(piperidin-4-yloxy)pyridin-4-yl)-2,3-dihydro-1H-inden-4-yl)-5-(methylsulfonyl)-4H-1,2,4-triazol-3-amine] | ≤ 5
27 | CC(C)c1cc(F)cc(-c2ccnc(OC3CCN(C)CC3)c2)c1Nc1nnc(S(C)(=O)=O)[nH]1 [Example 369, N-(4-fluoro-2-isopropyl-6-(2-((1-methylpiperidin-4-yl)oxy)pyridin-4-yl)phenyl)-5-(methylsulfonyl)-4H-1,2,4-triazol-3-amine] | ≤ 5
28 | CNS(=O)(=O)c1nnc(Nc2c3c(cc4c2CCC4)CCC3)[nH]1 [Example 371, 5-((1,2,3,5,6,7-hexahydro-s-indacen-4-yl)amino)-N-methyl-4H-1,2,4-triazole-3-sulfonamide] | ≤ 5
29 | COc1cc(-c2ccc3c(c2Nc2nnc(S(=O)(=O)c4ccccc4)[nH]2)CCC3)ccn1 [Example 372, N-(5-(2-methoxypyridin-4-yl)-2,3-dihydro-1H-inden-4-yl)-5-(phenylsulfonyl)-1H-1,2,4-triazol-3-amine] | ≤ 5
30 | CCN(CC)CCS(=O)(=O)Cc1nnc(Nc2c3c(cc4c2CCC4)CCC3)[nH]1 [Example 373, 5-(((2-(diethylamino)ethyl)sulfonyl)methyl)-N-(1,2,3,5,6,7-hexahydro-s-indacen-4-yl)-4H-1,2,4-triazol-3-amine] | ≤ 10
31 | (E)-1-(8-((5-((4-(dimethylamino)piperidin-1-yl)sulfonyl)-4H-1,2,4-triazol-3-yl)amino)-1,2,3,5,6,7-hexahydro-s-indacen-4-yl)ethan-1-one oxime and (Z)-1-(8-((5-((4-(dimethylamino)piperidin-1-yl)sulfonyl)-4H-1,2,4-triazol-3-yl)amino)-1,2,3,5,6,7-hexahydro-s-indacen-4-yl)ethan-1-one oxime [Example 309] | ≤ 5
